From patent publication US20250082634A1, “PIM KINASE INHIBITORS FOR TREATMENT OF MYELOPROLIFERATIVE NEOPLASMS AND FIBROSIS ASSOCIATED WITH CANCER” (Sumitomo Pharma America, Inc., priority 2018, published 2025)

Experiments:
Flt3 = Flt3 (Homo sapiens, UniProt P36888); assay: Flt3 inhibition (IC50); type: biochemical
PIM 3 = PIM 3 (Homo sapiens, UniProt Q86V86); assay: PIM kinase biochemical profile (Ki)
Phosphorylation of STAT5 = assay: STAT5 phosphorylation immunoblot in ruxolitinib-resistant cells; type: cell-based; details: ruxolitinib 0.5-2 μM
Metabolic stability = type: in vitro ADME; details: compared to Compound A
[1] = system: BA/F3-EpoR-JAK2 V617F cells; assay: Cell proliferation by viable cell counts; type: cell-based, murine; design: dose or concentration left out as unconfirmed; details: Compound 1, 5 days
BA/F3 MPL W515L cells = assay: Cell proliferation; type: cell-based, murine; details: 0.25-1 μM
Source text: (§1) These animals rapidly develop marked thrombocytosis and leukocytosis. At the time of sacrifice, MPL W515L expressing mice show splenomegaly and bone marrow fibrosis.

[2] = system: BA/F3 cells expressing wild type JAK2; assay: Apoptosis by Annexin V staining and flow cytometry; type: cell-based; details: 48 hours after treatment
PIM 2 = PIM 2 (Homo sapiens, UniProt Q9P1W9); assay: PIM kinase biochemical profile (Ki)
[3] = system: ruxolitinib-resistant BA/F3-EpoR-JAK2 V617F cells; assay: Proliferation of ruxolitinib-resistant cells by viable cell counts; type: cell-based; details: ruxolitinib 0.5-2 μM or Compound 1 0.25-1 μM, 5 days
SET-2 cells = assay: Cell proliferation by viable cell counts; type: cell-based; details: 5 days
PIM 1 = PIM 1 (Homo sapiens, UniProt P11309); assay: PIM kinase biochemical profile (Ki)
parental BA/F3 cells = assay: Cell proliferation; type: cell-based, murine
[4] = system: homozygous JAK2 V617F knock-in mouse model of MF; assay: Homozygous JAK2 V617F knock-in mouse model of MF; type: in vivo
Experimental: Bone marrow cells from homozygous JAK2 V617F knock-in mice were transplanted into lethally irradiated C57BL/6 recipients to obtain a cohort of MF mice with similar age. […] All mice were treated for 6 weeks.

[5] = system: HSC maintenance, TNFα and WNT signaling pathways; assay: RNA-sequencing of LSK cells from treated homozygous JAK2 V617F mice; type: in vivo, mouse; details: purified LSK cells, compared with vehicle
[6] = system: JAK2 V617F-positive HEL cells; assay: Cell proliferation by viable cell counts; type: cell-based, human; details: 5 days
[7] = system: MPL mutant (MPL W515L) mice; assay: MPL W515L transplantation mouse model; type: in vivo
Source text: as §1

[8] = system: JAK2 V617F-positive UKE-1 cells; assay: Cell proliferation by viable cell counts; type: cell-based, human; details: 5 days
[9] = system: BA/F3 cells expressing wild type JAK2; assay: Cell proliferation by viable cell counts; type: cell-based, murine; details: wild-type JAK2, higher concentrations, 5 days
rats = assay: GLP toxicology studies in rats; type: in vivo, rat
Experimental: (§2) Dose calculations were determined from GLP toxicology studies in rats and non-GLP toxicology studies in dogs.

PC3 cells = assay: Colony formation assay of prostate adenocarcinoma; type: cell-based; details: Homo sapiens, PC-3; RPMI, pyruvate, 0.5% FBS; read-out: EC50 against PC3 cells (colony formation)
Experimental: PC3 cells were seeded in Roswell Park Memorial Institute (RPMI) media with pyruvate and 10% fetal bovine serum (FBS).

dogs = assay: Non-GLP toxicology studies in dogs (7-day repeat); type: in vivo
Experimental: as §2
In dogs, the highest non-severely toxic dose was not observed in 7-day repeat studies at doses as high as 200 mg/kg, which equates to 7400 mg per person or greater, calculated as: […]

[10] = system: PC3 prostate adenocarcinoma xenograft; assay: PC3 prostate adenocarcinoma mouse xenograft model; type: in vivo
[11] = system: healthy control CD34+ cells; assay: Hematopoietic progenitor colony assay in methylcellulose; type: cell-based, human; details: 1-2 μM, 14 days
Source text: (§3) Hematopoietic progenitor colonies were counted after 14 days.

[12] = system: MPN patient CD34+ hematopoietic progenitor cells; assay: as above; type: cell-based, human; details: 1-2 μM, colonies counted after 14 days
Source text: as §3

[13] = system: HEL, BA/F3-EpoR-JAK2 V617F, UKE-1 and SET-2 cells expressing JAK2 V617F; assay: Apoptosis by Annexin V staining and flow cytometry; type: cell-based; details: 48 hours after treatment, JAK2 V617F-expressing cell lines
phospho-BAD = assay: Reduction of phospho-BAD (PIM-1 biomarker); type: cell-based; details: compared to Compound A
Source text: The results of this assay are illustrated as a plot of the % of the control against the compound concentration (FIG. 15).

[14] = Compound 1 150 mg/kg, ruxolitinib 60 mg/kg, oral gavage once daily, 6 weeks

Chain of Flt3 (P36888 27-993, species assumed): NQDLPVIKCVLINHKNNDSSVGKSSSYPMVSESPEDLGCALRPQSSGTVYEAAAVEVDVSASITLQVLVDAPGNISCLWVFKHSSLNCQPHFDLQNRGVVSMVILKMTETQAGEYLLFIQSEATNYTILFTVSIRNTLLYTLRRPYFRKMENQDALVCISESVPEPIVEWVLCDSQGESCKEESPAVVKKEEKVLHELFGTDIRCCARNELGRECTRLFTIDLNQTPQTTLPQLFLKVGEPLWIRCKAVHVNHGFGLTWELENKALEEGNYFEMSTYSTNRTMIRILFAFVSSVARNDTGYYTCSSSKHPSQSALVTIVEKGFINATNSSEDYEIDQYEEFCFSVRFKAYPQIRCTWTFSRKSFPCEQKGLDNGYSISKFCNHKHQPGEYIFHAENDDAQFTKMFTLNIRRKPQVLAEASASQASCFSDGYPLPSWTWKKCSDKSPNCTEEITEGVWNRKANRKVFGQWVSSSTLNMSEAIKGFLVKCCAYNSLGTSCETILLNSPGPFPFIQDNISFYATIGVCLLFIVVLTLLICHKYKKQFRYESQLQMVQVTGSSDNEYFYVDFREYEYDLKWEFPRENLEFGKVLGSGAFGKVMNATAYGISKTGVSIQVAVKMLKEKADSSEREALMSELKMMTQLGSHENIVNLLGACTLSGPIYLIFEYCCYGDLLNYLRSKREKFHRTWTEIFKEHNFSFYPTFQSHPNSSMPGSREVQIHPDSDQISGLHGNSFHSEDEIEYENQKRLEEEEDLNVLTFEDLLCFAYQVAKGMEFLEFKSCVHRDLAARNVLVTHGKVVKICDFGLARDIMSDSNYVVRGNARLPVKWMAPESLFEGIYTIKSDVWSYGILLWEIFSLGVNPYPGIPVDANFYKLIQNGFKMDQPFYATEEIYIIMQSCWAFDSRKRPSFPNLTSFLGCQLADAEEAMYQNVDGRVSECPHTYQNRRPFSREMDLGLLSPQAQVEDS
Chain of PIM 2 (Q9P1W9 whole entry, species assumed): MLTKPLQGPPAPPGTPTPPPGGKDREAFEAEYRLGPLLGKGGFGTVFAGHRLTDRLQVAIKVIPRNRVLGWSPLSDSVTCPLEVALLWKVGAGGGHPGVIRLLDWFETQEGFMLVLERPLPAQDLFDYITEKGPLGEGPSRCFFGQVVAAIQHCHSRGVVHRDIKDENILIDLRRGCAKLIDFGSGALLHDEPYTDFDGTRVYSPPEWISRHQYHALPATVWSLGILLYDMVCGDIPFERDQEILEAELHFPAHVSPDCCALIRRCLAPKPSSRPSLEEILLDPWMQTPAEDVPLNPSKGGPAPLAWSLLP
Chain of PIM 1 (P11309 whole entry, species assumed): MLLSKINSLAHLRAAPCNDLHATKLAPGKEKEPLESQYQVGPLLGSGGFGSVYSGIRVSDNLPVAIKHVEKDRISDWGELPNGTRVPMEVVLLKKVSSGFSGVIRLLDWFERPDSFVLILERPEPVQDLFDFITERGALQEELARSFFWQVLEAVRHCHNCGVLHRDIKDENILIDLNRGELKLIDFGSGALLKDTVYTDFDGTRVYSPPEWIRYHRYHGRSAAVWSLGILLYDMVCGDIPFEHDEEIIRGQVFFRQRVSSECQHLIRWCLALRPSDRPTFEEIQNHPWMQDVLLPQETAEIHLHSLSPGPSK

Structure (SMILES): CN1CCC(CNc2ccc3ncc(-c4cccc(OC(F)(F)F)c4)n3n2)CC1 [Compound A, reference compound]
- IC50 (Flt3): 3 nM
- Ki (PIM 3): 20 nM

Structure (SMILES): N#CC[C@H](C1CCCC1)n1cc(-c2ncnc3[nH]ccc23)cn1 [ruxolitinib]
- inhibition of STAT5 phosphorylation (Phosphorylation of STAT5): not inhibited

Structure (SMILES): CC(C)(O)[C@H]1CC[C@H](Nc2ccc3ncc(-c4cccc(C(F)(F)F)c4)n3n2)CC1 [Compound 1, 2-((1R,4R)-4-((3-(3-(trifluoromethyl)phenyl)imidazo[1,2-b]pyridazin-6-yl)amino)cyclohexyl)propan-2-ol]
- metabolic stability (Metabolic stability): improved metabolic stability
- reduction of proliferation [1]: ~90%
- reduction of proliferation (BA/F3 MPL W515L cells): significantly reduced
- apoptosis (Annexin V) [2]: not in wild type JAK2-expressing BA/F3 cells
- Ki (PIM 2): 239 nM
- inhibition of cell proliferation [3]: markedly inhibited
- inhibition of proliferation (SET-2 cells): dose dependent inhibition
- Ki (PIM 1): 5 nM
- concentration reducing proliferation (parental BA/F3 cells): greater than 1 M
- fibrosis in bone marrow and spleen (reticulin staining) ([4]; Compound 1 150 mg/kg, ruxolitinib 60 mg/kg, 6 weeks): marked reduction of fibrosis
- neutrophil counts [4, 14]: caused reduction
- peripheral blood white blood cell (WBC) counts [4, 14]: caused reduction
- spleen size ([4]; homozygous JAK2 V617F mice, versus vehicle): significantly reduces
- human equivalent of efficacious dose level in mouse myelofibrosis model (150 mg/kg) ([4]; per person): 925 mg
- expression of genes relating to HSC maintenance, TNFα and WNT signaling pathways [5]: significantly downregulated
- inhibition of proliferation [6]: markedly inhibited
- splenomegaly [7]: significant decrease
- inhibition of proliferation [8]: markedly inhibited
- inhibition of proliferation [9]: only modestly inhibited
- human equivalent of rat severely toxic dose in 10 percent of animals (rats; average per person): 5286 mg
- severely toxic dose in 10 percent of animals (rats; rat, GLP toxicology): 500 mg/kg
- EC50 (PC3 cells): 143 nM
- highest non-severely toxic dose (dogs; dog, 7-day repeat studies, not observed at doses as high as): ≥ 200 mg/kg
- human equivalent of dog highest non-severely toxic dose (dogs; per person): ≥ 7400 mg
- IC50 (Flt3): 279 nM
- percentage of tumor growth inhibition (% TGI) ([10]; 125 mg/kg): 59%
- percentage of tumor growth inhibition (% TGI) ([10]; 200 mg/kg): 40%
- effect on hematopoietic progenitor colonies [11]: minimal effect
- inhibition of hematopoietic progenitor colonies [12]: significantly inhibited
- apoptosis (Annexin V) [13]: significant apoptosis
- Ki (PIM 3): 42 nM
- potency at reducing phospho-BAD (phospho-BAD): more potent
